Reference: patent publication US20060040957A1, “BICYCLIC PYRIMIDINE MATRIX METALLOPROTEINASE INHIBITORS” (priority 2001, published 2006)
Counter-ions that a name gives are not always drawn.

Tests used:
Format in all cases: biochemical
[1] = target: MMP-13CD (catalytic domain of collagenase 3) (Homo sapiens, UniProt P45452); assay: Thiopeptolide substrate hydrolysis assay, MMP-13CD; conditions: thiopeptolide substrate, HEPES pH 7.0, 22° C.; for IC50: read-out: IC50 (μM) Versus Certain MMPs: MMP-13 CD
Text: (§1) Thiopeptolide substrates show virtually no decomposition or hydrolysis at or below neutral pH in the absence of a matrix metalloproteinase enzyme.

[2] = target: T1, MMP-2FL (full length Gelatinase A) (Homo sapiens, UniProt P08253); assay: Thiopeptolide substrate hydrolysis assay, MMP-2FL; conditions: HEPES pH 7.0, 22° C., read-out: IC50 (μM) Versus Certain MMPs: MMP-02 FL
T1 sequence (P08253 110-660): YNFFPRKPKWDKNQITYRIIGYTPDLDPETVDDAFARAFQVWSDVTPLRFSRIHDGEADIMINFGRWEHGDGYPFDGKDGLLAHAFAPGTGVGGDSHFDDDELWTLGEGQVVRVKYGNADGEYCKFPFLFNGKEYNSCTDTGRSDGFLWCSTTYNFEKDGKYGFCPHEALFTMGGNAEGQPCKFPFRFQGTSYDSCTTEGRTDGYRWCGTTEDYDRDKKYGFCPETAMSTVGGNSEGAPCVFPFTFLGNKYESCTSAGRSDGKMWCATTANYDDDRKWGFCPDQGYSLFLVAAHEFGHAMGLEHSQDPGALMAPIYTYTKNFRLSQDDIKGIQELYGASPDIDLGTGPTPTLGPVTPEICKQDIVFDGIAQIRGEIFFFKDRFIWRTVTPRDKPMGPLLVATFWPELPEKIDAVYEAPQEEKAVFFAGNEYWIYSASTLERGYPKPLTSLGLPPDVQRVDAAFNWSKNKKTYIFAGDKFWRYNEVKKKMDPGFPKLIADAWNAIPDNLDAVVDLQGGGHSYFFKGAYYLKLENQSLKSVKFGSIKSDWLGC
Text: (§2) The invention compounds of Formula I have been evaluated in standard assays for their ability to inhibit the catalytic activity of various MMP enzymes.
as §1
(§3) Several representative compounds have been evaluated for their ability to inhibit various matrix metalloproteinase enzymes.

[3] = target: T2, MMP-7FL (full length matrilysin) (Homo sapiens, UniProt P09237); assay: Thiopeptolide substrate hydrolysis assay, MMP-7FL; conditions: HEPES pH 7.0, 22° C., read-out: IC50 (μM) Versus Certain MMPs: MMP-07 FL
T2 sequence (P09237 95-267): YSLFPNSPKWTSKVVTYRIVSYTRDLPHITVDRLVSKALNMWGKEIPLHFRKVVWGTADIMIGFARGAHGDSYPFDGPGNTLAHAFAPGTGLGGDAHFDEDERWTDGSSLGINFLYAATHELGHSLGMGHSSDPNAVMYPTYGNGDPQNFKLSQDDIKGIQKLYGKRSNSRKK
Text: as §2, §1, §3

[4] = target: MMP-9FL (full length Gelatinase B) (Homo sapiens, UniProt P14780); assay: Thiopeptolide substrate hydrolysis assay, MMP-9FL; conditions: HEPES pH 7.0, 22° C., read-out: IC50 (μM) Versus Certain MMPs: MMP-09 FL
MMP-9FL (full length Gelatinase B), sequence (P14780 94-707, species assumed): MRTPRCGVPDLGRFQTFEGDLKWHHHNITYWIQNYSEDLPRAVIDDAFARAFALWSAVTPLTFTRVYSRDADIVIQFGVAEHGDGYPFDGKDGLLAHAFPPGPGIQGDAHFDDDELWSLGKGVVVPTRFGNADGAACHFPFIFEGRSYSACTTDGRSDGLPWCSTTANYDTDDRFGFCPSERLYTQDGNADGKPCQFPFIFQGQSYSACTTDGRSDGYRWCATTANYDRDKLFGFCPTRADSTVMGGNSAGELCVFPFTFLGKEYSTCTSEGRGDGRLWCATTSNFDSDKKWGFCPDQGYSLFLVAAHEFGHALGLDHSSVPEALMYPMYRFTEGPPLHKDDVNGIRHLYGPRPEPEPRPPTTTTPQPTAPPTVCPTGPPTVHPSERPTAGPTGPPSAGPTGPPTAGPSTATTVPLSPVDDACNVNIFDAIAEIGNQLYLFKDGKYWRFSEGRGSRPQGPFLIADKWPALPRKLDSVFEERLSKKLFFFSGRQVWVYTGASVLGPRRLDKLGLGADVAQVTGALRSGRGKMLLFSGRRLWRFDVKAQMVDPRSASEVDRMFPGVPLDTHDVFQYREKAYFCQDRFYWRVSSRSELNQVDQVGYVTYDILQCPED
Text: as §2, §1, §3

[5] = target: MMP-14CD (catalytic domain of MMP-14) (Homo sapiens, UniProt P50281); assay: Thiopeptolide substrate hydrolysis assay, MMP-14CD; conditions: HEPES pH 7.0, 22° C., read-out: IC50 (μM) Versus Certain MMPs: MMP-14 CD
Text: as §2, §1, §3

Row | SMILES | IC50 [1] [µM] | IC50 (μM) Versus Certain MMPs: MMP-13 CD [1] | IC50 [2] [µM] | IC50 [3] [µM] | IC50 [4] [µM] | IC50 [5] [µM]
1 | O=c1cc2sccn2c(=O)n1Cc1ccncc1 [6-(4-Pyridylmethyl)-thiazolo[3,2-c]pyrimidine-5,7,dione] | > 100 | – | – | – | – | –
2 | O=C(c1ccccc1)n1c(=O)cc2sccn2c1=O [6-Benzoyl-thiazolo[3,2-c]pyrimidine-5,7-dione] | > 100 | – | – | – | – | –
3 | O=c1cc2sc(C(O)c3ccccc3)cn2c(=O)n1Cc1ccccc1 (stereo not shown) [Example 7, 6-Benzyl-2-(hydroxy-phenyl-methyl)-thiazolo[3,2-c]pyrimidine-5,7-dione] | 32 | – | – | – | – | –
4 | O=C(OCc1ccccc1)C1CSc2cc(=O)n(Cc3ccccc3)c(=O)n21 (stereo not shown) [Example 20, 6-Benzyl-5,7-dioxo-2,3,6,7-tetrahydro-5H-thiazolo[3,2-c]pyrimidine-3-carboxylic acid benzyl ester] | – | none | – | – | – | –
5 | Cc1c(=O)n(Cc2ccccc2)c(=O)n2cc(C(=S)NCc3ccccc3)sc12 [Example 24, 6-Benzyl-8-methyl-5,7-dioxo-6,7-dihydro-5H-thiazolo[3,2-c]pyrimidine-2-carbothioic acid benzylamide] | > 30 | – | – | – | – | –
6 | COC(=O)c1sc2cc(=O)n(Cc3ccccc3)c(=O)n2c1C [Example 26, 6-Benzyl-3-methyl-5,7-dioxo-6,7-dihydro-5H-thiazolo[3,2-c]pyrimidine-2-carboxylic acid methyl ester] | > 100 | – | – | – | – | –
7 | Cc1c(=O)n(Cc2ccccc2)c(=O)n2cc(C(=O)NCc3ccc(Cl)cc3Cl)sc12 [Example 27, 6-Benzyl-8-methyl-5,7-dioxo-6,7-dihydro-5H-thiazolo[3,2-c]pyrimidine-2-carboxylic acid 2,4-dichloro-benzylamide] | > 30 | – | – | – | – | –
8 | Cc1c(=O)n(Cc2ccccc2)c(=O)n2cc(C(O)C=Cc3ccccc3)sc12 (stereo not shown) [Example 29, 6-Benzyl-2-(1-hydroxy-3-phenyl-allyl)-8-methyl-thiazolo[3,2-c]pyrimidine-5,7-dione] | 25 | – | – | – | – | –
9 | Cc1c(=O)n(Cc2ccccc2)c(=O)n2cc(C(O)C#Cc3ccccc3)sc12 (stereo not shown) [Example 31, 6-Benzyl-2-(1-hydroxy-3-phenyl-prop-2-ynyl)-8-methyl-thiazolo[3,2-c]pyrimidine-5,7-dione] | > 30 | – | – | – | – | –
10 | Cc1c(=O)n(Cc2ccccc2)c(=O)n2cc(C(=O)O)sc12 [Example 33, 6-Benzyl-8-methyl-5,7-dioxo-6,7-dihydro-5H-thiazolo[3,2-c]pyrimidine-2-carboxylic acid] | > 100 | – | – | – | – | –
11 | Cc1c(=O)n(Cc2ccc(Br)cc2)c(=O)n2cc(C(=O)NCc3ccncc3)sc12 [Example 71, 6-(4-Bromo-benzyl)-8-methyl-5,7-dioxo-6,7-dihydro-5H-thiazolo[3,2-c]pyrimidine-2-carboxylic acid(pyridin-4-ylmethyl)-amide hydrochloride] | – | – | > 30 | > 30 | > 30 | > 30
12 | Cc1c(=O)n(Cc2ccc(Cl)cc2)c(=O)n2cc(C(=O)NCc3ccncc3)sc12 [Example 72, 6-(4-Chloro-benzyl)-8-methyl-5,7-dioxo-6,7-dihydro-5H-thiazolo[3,2-c]pyrimidine-2-carboxylic acid(pyridin-4-ylmethyl)-amide] | – | – | > 30 | > 30 | > 30 | > 30
13 | Cc1c(=O)n(Cc2ccc(C(=O)N3CCOCC3)cc2)c(=O)n2cc(C(=O)NCc3ccncc3)sc12 [Example 73, 8-Methyl-6-[4-(morpholine-4-carbonyl)-benzyl]-5,7-dioxo-6,7-dihydro-5H-thiazolo[3,2-c]pyrimidine-2-carboxylic acid(pyridin-4-ylmethyl)-amide hydrochloride] | – | – | > 100 | > 100 | > 100 | > 30
14 | COC(=O)Nc1cc(Cn2c(=O)c(C)c3sc(C(=O)NCc4ccc(F)cc4)cn3c2=O)on1 [Example 74, {5-[2-(4-Fluoro-benzylcarbamoyl)-8-methyl-5,7-dioxo-7H-thiazolo[3,2-c]pyrimidin-6-ylmethyl]-isoxazol-3-yl}-carbamic acid methyl ester] | – | – | > 30 | 87 | > 30 | > 30
15 | Cc1c(=O)n(Cc2ccc(-c3nn[nH]n3)cc2)c(=O)n2cc(C(=O)NCc3ccc(F)cc3)sc12 [Example 75, 8-Methyl-5,7-dioxo-6-[4-(2H-tetrazol-5-yl)-benzyl]-6,7-dihydro-5H-thiazolo[3,2-c]pyrimidine-2-carboxylic acid 4-fluoro-benzylamide] | – | – | > 100 | > 100 | > 100 | > 100
16 | Cc1c(=O)n(Cc2ccc(C(=O)N3CCOCC3)cc2)c(=O)n2cc(C(=O)NCc3ccc(F)cc3)sc12 [Example 76, 8-Methyl-6-[4-(morpholine-4-carbonyl)-benzyl]-5,7-dioxo-6,7-dihydro-5H-thiazolo[3,2-c]pyrimidine-2-carboxylic acid 4-fluoro-benzylamide] | – | – | > 30 | > 30 | > 30 | > 30
17 | Cc1c(=O)n(Cc2ccc3cc(F)ccc3n2)c(=O)n2cc(C(=O)NCc3ccc(F)cc3)sc12 [Example 77, 6-(6-Fluoro-quinolin-2-ylmethyl)-8-methyl-5,7-dioxo-6,7-dihydro-5H-thiazolo[3,2-c]pyrimidine-2-carboxylic acid 4-fluoro-benzylamide] | – | – | > 30 | > 30 | > 30 | > 30
18 | CC#CCn1c(=O)c(C)c2sc(C(=O)NCc3ccc(F)cc3)cn2c1=O [Example 79, 6-But-2-ynyl-8-methyl-5,7-dioxo-6,7-dihydro-5H-thiazolo[3,2-c]pyrimidine-2-carboxylic acid 4-fluoro-benzylamide] | – | – | > 100 | > 100 | > 100 | > 100
19 | Cc1c(=O)n(Cc2ccc3oc(=O)ccc3c2)c(=O)n2cc(C(=O)NCc3ccc(F)cc3)sc12 [Example 80, 8-Methyl-5,7-dioxo-6-(2-oxo-2H-1-benzopyran-6-ylmethyl)-6,7-dihydro-5H-thiazolo[3,2-c]pyrimidine-2-carboxylic acid 4-fluoro-benzylamide] | – | – | > 30 | > 30 | > 30 | > 30
20 | Cc1c(=O)n(Cc2cccc(C#N)c2)c(=O)n2cc(C(=O)NCc3ccncc3)sc12 [Example 82, 6-(3-Cyano-benzyl)-8-methyl-5,7-dioxo-6,7-dihydro-5H-thiazolo[3,2-c]pyrimidine-2-carboxylic acid(pyridin-4-ylmethyl)-amide hydrochloride] | – | – | > 30 | > 30 | > 30 | > 30
21 | Cc1c(=O)n(Cc2ccc(S(N)(=O)=O)cc2)c(=O)n2cc(C(=O)NCc3ccncc3)sc12 [Example 84, 8-Methyl-5,7-dioxo-6-(4-sulfamoyl-benzyl)-6,7-dihydro-5H-thiazolo[3,2-c]pyrimidine-2-carboxylic acid(pyridin-4-ylmethyl)-amide hydrochloride] | – | – | > 100 | > 100 | > 100 | > 100
22 | COc1cccc(CNC(=O)c2cn3c(=O)n(Cc4ccccc4)c(=O)c(C)c3s2)c1 [Example 109, 6-Benzyl-8-methyl-5,7-dioxo-6,7-dihydro-5H-thiazolo[3,2-c]pyrimidine-2-carboxylic acid 3-methoxy-benzylamide] | – | – | > 30 | > 30 | > 30 | > 30
